Consider 22 molecules from patent publication US9000022B2 (Exelixis Patent Company LLC, priority 2005, dated 2015).

Bounds are passed on as bounds.

In the experiment the test system is LXRα and/or LXRβ. The experiment in a line: Co-transfection assay (LXRE luciferase reporter, CV-1 cells). The class given is cell-based, human. The following applies: tested as described in Example 33; IC50 or EC50 for LXRα and/or LXRβ, isoform not specified; read-out: activity (IC50 or EC50 for LXR). The source says: To measure the ability of compounds to activate or inhibit the transcriptional activity of LXR in a cell based assay, the co-transfection assay was used. It has been shown that LXR functions as a heterodimer with RXR. For the co-transfection assay, expression plasmids for LXR and RXR are introduced via transient transfection into mammalian cells along with a luciferase reporter plasmid that contains one copy of a DNA sequence that is bound by LXR-RXR heterodimers (LXRE; Willy, P. et. al. 1995). Treatment of transfected cells with an LXR agonist increases the transcriptional activity of LXR, which is measured by an increase in luciferase activity.
CV-1 African Green Monkey Kidney Cells Co-transfection expression plasmids, comprising full-length LXRα (pCMX-h LXRα, LXRβ (pCMX-hLXRβ), or RXRα (pCMX-RXR), reporter plasmid (LXREx1-Tk-Luciferase), and control (pCMX-Galactosidase expression vector) (Willey et al. Genes & Development 9 1033-1045 (1995)). Transfection reagent such as FuGENE6 (Roche). 1× Cell lysis buffer (1% Triton X 100 (J T Baker X200-07), 10% Glycerol (J T Baker M778-07), 5 mM Ditriotreitol (Quantum Bioprobe DTT03; add fresh before lysing), 1 mM EGTA (Ethylene Glycol-bis(B-Amino ethyl ether)-N,N,N′,N′-Tetracetic Acid) (Sigma E-4378), 25 mM Tricine (ICN 807420) pH 7.8) 1× Luciferase assay buffer (pH at 7.8) (0.73 mM ATP, 22.3 mM Tricine, 0.11 mM EDTA, 33.3 mM DTT) 1× Luciferrin/CoA (11 mM Luciferin, 3.05 mM Coenzyme A, 10 mM HEPES)
CV-1 cells were prepared 24 hours prior to the experiment by plating them into T-175 flasks or 500 cm^2 dishes in order to achieve 70-80% confluency on the day of the transfection. The number of cells to be transfected was determined by the number of plates to be screened. Each 384 well plate requires 1.92×10^6 cells or 5000 cells per well. DNA Transfection Reagent was prepared by mixing the required plasmid DNAs with a cationic lipid transfection reagent FuGENE6 (Roche) by following the instructions provided with the reagents. Optimal DNA amounts were determined empirically per cell line and size of vessel to be transfected. 10-12 mL of media was added to the DNA Transfection Reagent and this mixture was added to the cells after aspirating media from the T175 cm^2 flask. Cells were then incubated at least 5 hours at 37° C. to prepare screening cells.
Luciferase assay reagent was prepared by combining before use (per 10 mL): 10 mL 1× Luciferase assay buffer; 0.54 mL of 1× Luciferrin/CoA; 0.54 mL of 0.2 M Magnesium sulfate
Assay plates were prepared by dispensing 5 μL, of compound per well of a 384 well plate to achieve final compound concentration of 10 μM and no more than 1% DMSO. Media was removed from the screening cells, the cells trypsinized, harvested cells by centrifugation, counted, and plated at a density of approximately 5000 cells per well in the 384 well assay plate prepared above in a volume of about 45 μL. Assay plates containing both compounds and screening cells (50 μL in total volume) were incubated for 20 hours at 37° C.
After incubation with compounds, media was removed from the cells and lysis buffer (30 μL/well) added. After 30 minutes at ambient temperature, luciferase assay buffer (30 μL/well) was added and the assay plates read on a luminometer (PE Biosystems Northstar reader with on-board injectors, or equivalent). Plates were read immediately after addition of luciferase assay buffer.
The LXR/LNRE co-transfection assay can be used to establish the EC50/IC50 values for potency and percent activity or inhibition for efficacy. Efficacy defines the activity of a compound relative to a high control ((N-(3-((4-fluorophenyl)-(naphthalene-2-sulfonyl)amino)propyl)-2,2-dimethylpropionamide)) or a low control (DMSO/vehicle). The dose response curves are generated from an 8 point curve with concentrations differing by ½ LOG units. Each point represents the average of 4 wells of data from a 384 well plate. […]
(In general: Reporter assays use an easily measured gene product as a stand-in for the process of interest.)
As for `CC(C)(O)c1cn(-c2ccc(-c3cccc(S(C)(=O)=O)c3)cc2)c(-c2cccc(C(F)(F)F)c2)n1` [Example 392, 2-{1-[3′-(methylsulfonyl)biphenyl-4-yl]-2-[3-(trifluoromethyl)phenyl]-1H-imidazol-4-yl}propan-2-ol], the IC50 or EC50 (potency, activation or inhibition) was under 1 µM.
For `CCS(=O)(=O)c1cccc(-c2ccc(-n3cc(C(=O)NCC(F)(F)F)nc3-c3c(Cl)cccc3Cl)c(Cl)c2)c1` [Example 462, 1-(3-chloro-3′-(ethylsulfonyl)biphenyl-4-yl)-2-(2,6-dichlorophenyl)-N-(2,2,2-trifluoroethyl)-1H-imidazole-4-carboxamide], the IC50 or EC50 (potency, activation or inhibition) is under 1 µM.
As to `CON(C)C(=O)c1ccc(-c2ccc(-n3cc(C(C)(C)O)nc3-c3c(F)cccc3Cl)c(Cl)c2)cc1S(C)(=O)=O` [Example 448, 3′-chloro-4′-(2-(2-chloro-6-fluorophenyl)-4-(2-hydroxypropan-2-yl)-1H-imidazol-1-yl)-N-methoxy-N-methyl-3-(methylsulfonyl)biphenyl-4-carboxamide], the IC50 or EC50 (potency, activation or inhibition) is over 10 µM.
Take `CCC(O)(CC)c1cn(-c2ccc(-c3cccc(S(C)(=O)=O)c3)cc2)c(-c2cccc(Cl)c2Cl)n1` [Example 72, 3-(2-(2,3-dichlorophenyl)-1-(3′-(methylsulfonyl)biphenyl-4-yl)-1H-imidazol-4-yl)pentan-3-ol]: the IC50 or EC50 (potency, activation or inhibition) is under 1 µM.
For `CCS(=O)(=O)c1cccc(-c2ccc(-n3cc(C(C)(C)O)nc3C(C)(C)c3cccc(Cl)c3Cl)c(Cl)c2)c1` [Example 452, 2-(1-(3-chloro-3′-(ethyl-sulfonyl)biphenyl-4-yl)-2-(2-(2,3-dichlorophenyl)propan-2-yl)-1H-imidazol-4-yl)propan-2-ol], the IC50 or EC50 (potency, activation or inhibition) was under 1 µM.
Under `CS(=O)(=O)c1cccc(-c2ccc(-n3cc(C(=O)NCC(F)(F)F)nc3-c3c(Cl)cccc3Cl)c(Cl)c2)c1` [Example 459, 1-(3-chloro-3′-(methyl-sulfonyl)biphenyl-4-yl)-2-(2,6-dichlorophenyl)-N-(2,2,2-trifluoro-ethyl)-1H-imidazole-4-carboxamide] stands under 1 µM; under `Cc1cc(-c2cc(S(C)(=O)=O)ccc2Cl)ccc1-n1cc(C(C)(C)O)nc1Cc1cccc(Cl)c1Cl` [Example 468, 2-(1-(2′-chloro-3-methyl-5′-(methylsulfonyl)biphenyl-4-yl)-2-(2,3-dichlorobenzyl)-1H-imidazol-4-yl)propan-2-ol], under 1 µM.
For the molecule `CC(C)(O)c1cn(-c2ccc(-c3cccc(S(C)(=O)=O)c3)cc2)c(-c2ccccc2Cl)n1` [Example 379, 2-{2-(2-chlorophenyl)-1-[3′-(methylsulfonyl)biphenyl-4-yl]-1H-imidazol-4-yl}propan-2-ol], the IC50 or EC50 (potency, activation or inhibition) was under 1 µM.
For the molecule `Cc1cccc(Cl)c1-c1nc(C(C)(C)O)cn1-c1ccc(-c2cccc(S(C)(=O)=O)c2)cc1F` [Example 128, 2-(2-(2-chloro-6-methylphenyl)-1-(3-fluoro-3′-(methylsulfonyl)biphenyl-4-yl)-1H-imidazol-4-yl)propan-2-ol], the IC50 or EC50 (potency, activation or inhibition) is under 1 µM.
In the case of `Cc1cc(-c2cccc(S(C)(=O)=O)c2)ccc1-c1nc(C(C)(C)O)cn1-c1c(C)cccc1C(C)C` [Example 59, 2-(1-(2-isopropyl-6-methylphenyl)-2-(3-methyl-3′-(methylsulfonyl)biphenyl-4-yl)-1H-imidazol-4-yl)propan-2-ol], the IC50 or EC50 (potency, activation or inhibition) was under 1 µM.
With `CC(C)(O)c1cn(-c2ccc(-c3ccc(CO)c(S(C)(=O)=O)c3)cc2)c(-c2c(F)cccc2Cl)n1` [Example 100, 2-(2-(2-chloro-6-fluorophenyl)-1-(4′-(hydroxymethyl)-3′-(methyl-sulfonyl)biphenyl-4-yl)-1H-imidazol-4-yl)propan-2-ol], the IC50 or EC50 (potency, activation or inhibition) is 1 to 10 µM.
Then `CC(C)(O)c1cn(-c2c(Cl)cccc2Cl)c(-c2ccc(-c3cccc(S(C)(=O)=O)c3)cc2Cl)n1` [Example 65, 2-(2-(3-chloro-3′-(methyl-sulfonyl)biphenyl-4-yl)-1-(2,6-dichlorophenyl)-1H-imidazol-4-yl)propan-2-ol], with under 1 µM; and `CC(C)(O)c1cn(-c2ccc(-c3cccc(S(C)(=O)=O)c3)cc2F)c(-c2c(Cl)cccc2Cl)n1` [Example 115, 2-(2-(2,6-dichlorophenyl)-1-(3-fluoro-3′-(methylsulfonyl)biphenyl-4-yl)-1H-imidazol-4-yl)propan-2-ol], with under 1 µM.
With `CN1CCN(C(=O)c2cn(-c3ccc(-c4cccc(S(C)(=O)=O)c4)cc3)c(-c3c(Cl)cccc3Cl)n2)CC1` [Example 83, (2-(2,6-dichlorophenyl)-1-(3′-(methylsulfonyl)biphenyl-4-yl)-1H-imidazol-4-yl)(4-methylpiperazin-1-yl)methanone], the IC50 or EC50 (potency, activation or inhibition) fell in the range of 1 to 10 µM.
On to `CCC(O)(CC)c1cn(-c2ccc(-c3cccc(S(=O)(=O)CC)c3)cc2)c(Cc2ccccc2Cl)n1` [Example 14], for which the IC50 or EC50 (potency, activation or inhibition) was under 1 µM.
On to `CCc1cc(-c2cccc(S(C)(=O)=O)c2)ccc1-n1cc(C(C)(C)O)nc1-c1ccccc1Cl` [Example 170, 2-(2-(2-chlorophenyl)-1-(3-ethyl-3′-(methylsulfonyl)biphenyl-4-yl)-1H-imidazol-4-yl)propan-2-ol], for which the IC50 or EC50 (potency, activation or inhibition) is under 1 µM.
For the molecule `Cc1cccc(Cl)c1-c1nc(C(C)(C)O)cn1-c1ccc(-c2cccc(S(C)(=O)=O)c2)cc1` [Example 394, 2-{2-(2-chloro-6-methylphenyl)-1-[3′-(methylsulfonyl)biphenyl-4-yl]-1H-imidazol-4-yl}propan-2-ol], the IC50 or EC50 (potency, activation or inhibition) is under 1 µM.
As for `CS(=O)(=O)c1cccc(-c2ccc(-n3cc(C(=O)NCC(F)(F)F)nc3-c3c(Cl)cccc3Cl)cc2)c1` [Example 87, 2-(2,6-dichlorophenyl)-1-(3′-(methyl-sulfonyl)biphenyl-4-yl)-4-(2,2,2-trifluoroethyl)-1H-imidazole-4-carboxamide], the IC50 or EC50 (potency, activation or inhibition) was under 1 µM.
Then `Cc1cc(-c2cccc(S(C)(=O)=O)c2)ccc1-c1nc(C(C)(C)O)cn1-c1ccccc1C(C)C` [Example 61, 2-(1-(2-isopropylphenyl)-2-(3-methyl-3′-(methylsulfonyl)biphenyl-4-yl)-1H-imidazol-4-yl)propan-2-ol], with under 1 µM; and `CC(O)(c1cn(-c2ccc(-c3cccc(S(C)(=O)=O)c3)cc2)c(-c2ccccc2C(F)(F)F)n1)C(F)(F)F` (stereo not shown) [Example 67], with under 1 µM.
For the molecule `Cc1c(Cl)cccc1-c1nc(C(C)(C)O)cn1-c1ccc(-c2ccc(CO)c(S(C)(=O)=O)c2)cc1F` [Example 120, 2-(2-(3-chloro-2-methylphenyl)-1-(3-fluoro-4′-(hydroxymethyl)-3′-(methylsulfonyl)biphenyl-4-yl)-1H-imidazol-4-yl)propan-2-ol], the IC50 or EC50 (potency, activation or inhibition) was under 1 µM.
For the molecule `CC(C)(O)c1cn(-c2ccc(-c3ccc(CO)c(S(C)(=O)=O)c3)cc2)c(-c2c(Cl)cccc2Cl)n1` [Example 99, 2-(2-(2,6-dichlorophenyl)-1-(4′-(hydroxymethyl)-3′-(methyl-sulfonyl)biphenyl-4-yl)-1H-imidazol-4-yl)propan-2-ol], the IC50 or EC50 (potency, activation or inhibition) was under 1 µM.
